Reference: a melting point compilation (Tetko et al.; mined from patent text by program, amines drawn as free bases though some values may be those of a salt)

| melting point [°C] | SMILES |
| --- | --- |
| 130 to 131 | C=C(C)COc1ccc(Cl)cc1CN(CC)c1ccc(C(=O)O)nn1 |
| 273 | CC(=O)Nn1cnc2c(Br)csc2c1=O |
| 72 to 78 | S=C(NCCc1c[nH]cn1)NCCN(Cc1ccc(Cl)c(Cl)c1)c1ccc(Br)cn1 |
| 96 to 97 | CCCCCCCCCCCCc1ccc(S(=O)(=O)Nc2nnc(C(=O)OCC)s2)cc1 |
| 176 to 177 | CC(=O)ON=C1Cc2ccccc2N(C(N)=O)c2ccccc21 |
| 88 | CCOC(=O)C(N=C(c1ccccc1)c1cc(Cl)ccc1NC)C(=O)OCC |
| 74 to 76 | CCCCCCCCCCCCCCCCCCOc1cc(N)cc(OCCCOc2ccccc2)c1 |
| 109 to 116 | CC(C)C[C@H](NC(=O)OCC1CCCCC1)C(=O)N[C@@H](CC(C)C)C(=O)N[C@@H](C(C)C)[C@@H](O)c1c(-c2ccccc2)c1=O |
| 220 | O=C(O)c1cc(=O)c2cc([N+](=O)[O-])ccc2s1 |
| 258 to 260 | CC=CC=CC(=O)Nc1ccc2ncnc(Nc3cccc(Br)c3)c2c1 |
| 131 to 132 | CCCCP(=CC#N)(CCCC)CCCC |
| 61 to 63 | CCOC(=O)CCCOc1cccc(C=Cc2ccc3ccc(Br)cc3n2)c1 |
| 233 to 235 | CC(O)c1cc2c(s1)S(=O)(=O)CCc1cc(=O)n(-c3ccc(Cl)cc3)nc1-2 (stereo unspecified) |
| 160 to 161 | O=C(O)CCCc1ccc(-c2ccc([N+](=O)[O-])cc2)cc1 |
| 192 to 193 | Oc1ccc2c(c1)CCCC(c1ccccc1)=C2c1ccc(OCCCCCI)cc1 |
| 141 to 143 | Cc1c(SCCCn2c([N+](=O)[O-])cnc2C)ccnc1CSc1ncccn1 |
| 123 to 124 | CCc1nc(/C=C/c2cn(-c3ccccc3)nc2OCc2ccc(OCc3nc(-c4ccc(CC(=O)O)cc4)oc3C)c(OC)c2)cs1 |
| 112 to 114 | O=C(NCc1ccccc1)Oc1ccc2c(ccn2Cc2ccncc2)c1 |
| 173 to 175 | CCCc1nnc2c(Cl)nc3ccccc3n12 |

The next lines start with the molecule.

| SMILES | melting point [°C] |
| --- | --- |
| FC(F)(F)c1cc(Br)c(OCc2ccccc2)c(OCc2ccccc2)c1 | 79 to 80 |
| CN1Cc2c(Cl)ccc3scc(c23)S1(=O)=O | 196 |
| Nc1nc2ccccc2c2c1nc(CO)n2Cc1cc(-c2ccc(F)cc2)no1 | 262 to 263 |
| CC(C(=O)O)c1ccc(Oc2ccc(F)cc2)c(Cl)c1 (stereo unspecified) | 68 to 70 |
| O=C(O)CCC1(C(=O)O)NCC(=O)N1 (stereo unspecified) | 202 to 205 |
| O=c1n(CC(O)c2ccccc2)c2c(Br)c(Br)c(Br)c(Br)c2n1CC(O)c1ccccc1 (stereo unspecified) | 121 to 123 |
| Cc1[nH]cnc1CSCCNC(=S)NC#N | 158 to 161 |
| CC(C)(O)C#Cc1cc(C(F)(F)F)cc(C(F)(F)F)c1 | 74.5 to 74.8 |
| CC(C)(C)c1cc(C(=O)c2cccs2)cc(CN2CCSCC2)c1O | 165 to 166 |
| N#CC1(c2ccc(F)cc2)CCC(N2CCC3(CC2)C(=O)NCN3c2ccccc2)CC1 (stereo unspecified) | 236 |
| O=S(=O)(O)CCCNC1CCCC1 | 280 to 282 |
| N#Cc1cnc2n(c1=O)CCCCC2 | 125 |
| CC1(C)Oc2ccsc2C(N2CCCC2)C1O (stereo unspecified) | 85 to 89 |
| COc1cc(I)c(C(=O)Cl)cc1OC | 151 to 154 |
| N#Cc1cccc(C2OCCO2)n1 | 64 |
| C=CCSc1nc(=O)n(C(=O)NC)s1 | 110 |
| CSC(=C[N+](=O)[O-])NCCSCc1[nH]cnc1C | 147 to 150 |
| FC(F)(F)c1cccc2c1c(N1CCOCC1)nc1c(-c3nc(C4CC4)no3)ncn12 | 197 to 199 |
| C=CCC1(SC(C)=O)C(C)(C)c2ccccc2C1(C)C | 65 to 67 |
| CC(C)(C)c1cc(-c2nc(CS(C)(=O)=O)no2)cc(C(C)(C)C)c1O | 153 to 155 |
| Cn1c(-c2ccccc2)c(-c2ccc(C(=O)O)cc2)c2ccccc21 | 165 to 166 |
| NC(=O)c1ccc(NC(=O)c2ccccc2SSc2ccccc2C(=O)Nc2ccc(C(N)=O)cc2)cc1 | > 270 |
